Measured values published in the supplement of paper PMC11579375.

How the values were obtained:
Experiment in all cases: area under the viability dose-response curve (AUC) (AUC (arbitrary units, max 500 = no viability loss)); higher = less sensitive (higher viability)
Conditions in all cases: exposure time: 120 h; concentration range: 0.1 nM - 10 µM, 6 doses
22E = test system: 22E (embryonal-type hepatoblastoma organoid)
Method: (§1)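 Patient-derived hepatoblastoma tumor organoids (about 50 organoids per well, 384-well plates, medium with 5% BME) were treated with the PMC pediatric cancer drug library. Each drug was tested in duplicate at 6 concentrations (0.1 nM to 10 µM, 10-fold steps).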

3E = test system: 3E (embryonal-type hepatoblastoma organoid)
Method: as §1

13E = test system: 13E (embryonal-type hepatoblastoma organoid)
Method: as §1

10F2 = test system: 10F2 (fetal-II hepatoblastoma organoid with high liver markers)
Method: as §1

13F2 = test system: 13F2 (fetal-II hepatoblastoma organoid with high liver markers)
Method: as §1

96F1 = test system: 96F1 (fetal-I hepatoblastoma organoid with intermediate liver markers)
Method: as §1

8F1 = test system: 8F1 (fetal-I hepatoblastoma organoid with intermediate liver markers)
Method: as §1

17F1 = test system: 17F1 (fetal-I hepatoblastoma organoid with intermediate liver markers)
Method: as §1

135F2 = test system: 135F2 (fetal-II hepatoblastoma organoid with high liver markers)
Method: as §1

27F1 = test system: 27F1 (fetal-I hepatoblastoma organoid with intermediate liver markers)
Method: as §1

17E = test system: 17E (embryonal-type hepatoblastoma organoid)
Method: as §1

Structure (SMILES)	area under the viability dose-response curve (22E)	area under the viability dose-response curve (3E)	area under the viability dose-response curve (13E)	area under the viability dose-response curve (10F2)	area under the viability dose-response curve (13F2)	area under the viability dose-response curve (96F1)	area under the viability dose-response curve (8F1)	area under the viability dose-response curve (17F1)	area under the viability dose-response curve (135F2)	area under the viability dose-response curve (27F1)	area under the viability dose-response curve (17E)
Cc1cc(Nc2ncc(Cl)c(Nc3ccccc3S(=O)(=O)C(C)C)n2)c(OC(C)C)cc1C1CCNCC1 [Ceritinib]	375	351	381	356	349	413	441	446	373	432	368
C[C@@H](Oc1cc(-n2cnc3ccc(CN4CCN(C)CC4)cc32)sc1C(N)=O)c1ccccc1C(F)(F)F	256	246	262	250	268	361	358	276	254	262	277
O=c1cc(CN2CCOCC2)occ1OCCCCCSc1ccnc2cc(C(F)(F)F)ccc12 [EHT 1864]	490	371	481	375	456	488	468	477	475	490	454
CC(C)C[C@H](NC(=O)[C@H](CCc1ccccc1)NC(=O)CN1CCOCC1)C(=O)N[C@@H](Cc1ccccc1)C(=O)N[C@@H](CC(C)C)C(=O)[C@@]1(C)CO1 [Carfilzomib]	347	242	362	323	217	355	350	269	194	332	247
Cc1sc2c(c1C)C(c1ccc(Cl)cc1)=N[C@@H](CC(N)=O)c1nnc(C)n1-2 [CPI-203]	413	342	410	335	336	473	447	467	334	468	373
C=CC(=O)N1CCC[C@@H](n2nc(-c3ccc(Oc4ccccc4)cc3)c3c(N)ncnc32)C1 [Ibrutinib]	443	> 500	476	386	358	438	480	488	455	418	439
S=c1nc[nH]c2nc[nH]c12 [6-Mercaptopurine]	460	> 500	449	478	443	420	465	451	402	469	429
CC[C@]1(O)C[C@@H]2CN(CCc3c([nH]c4ccccc34)[C@@](C(=O)OC)(c3cc4c(cc3OC)N(C)[C@H]3[C@@](O)(C(N)=O)[C@H](O)[C@]5(CC)C=CCN6CC[C@]43[C@@H]65)C2)C1 [Vindesine]	219	170	204	195	246	173	211	239	202	238	206
CN1CCN(CCOc2cc(OC3CCOCC3)c3c(Nc4c(Cl)ccc5c4OCO5)ncnc3c2)CC1 [Saracatinib]	477	492	464	422	415	466	475	493	478	381	455
O=C(Nc1cnn2ccc(N3CCC[C@@H]3c3cc(F)ccc3F)nc12)N1CC[C@H](O)C1 [Larotrectinib]	> 500	450	487	> 500	> 500	481	473	467	495	> 500	453
Cc1nc(-c2cn3c(n2)-c2ccc(-c4cnn(C(C)(C)C(N)=O)c4)cc2OCC3)n(C(C)C)n1 [Taselisib]	415	305	388	361	351	437	475	493	435	413	349
CC(C)(C)c1nc(-c2cccc(NS(=O)(=O)c3c(F)cccc3F)c2F)c(-c2ccnc(N)n2)s1 [Dabrafenib]	486	491	497	422	411	456	> 500	> 500	471	497	494
O=C(c1cc(Cc2n[nH]c(=O)c3ccccc23)ccc1F)N1CCN(C(=O)C2CC2)CC1 [Olaparib]	458	477	496	470	491	490	> 500	> 500	492	476	494
O=C1NC(=O)[C@@H](c2cn3c4c(cccc24)CCC3)[C@@H]1c1c[nH]c2ccccc12 [Tivantinib]	404	349	358	320	350	377	455	415	367	375	345
C[C@@H]1COC(Nc2ccc3ncnc(Nc4ccc(OCc5nccs5)c(Cl)c4)c3c2)=N1 [Varlitinib]	481	485	476	382	372	430	476	447	465	433	480
CC(=O)O[C@@]12CO[C@@H]1C[C@H](O)[C@@]1(C)C(=O)[C@H](O)C3=C(C)[C@@H](OC(=O)[C@H](O)[C@@H](NC(=O)OC(C)(C)C)c4ccccc4)C[C@@](O)([C@@H](OC(=O)c4ccccc4)[C@H]21)C3(C)C [Docetaxel]	248	101	179	134	171	203	401	255	195	267	175
CNC(=O)c1ccc(Nc2ncc(C(F)(F)F)c(NCc3nccnc3N(C)S(C)(=O)=O)n2)cc1 [Defactinib]	469	454	443	465	442	443	466	466	454	455	449

Structure (SMILES)	area under the viability dose-response curve (22E)	area under the viability dose-response curve (3E)	area under the viability dose-response curve (13E)	area under the viability dose-response curve (10F2)	area under the viability dose-response curve (13F2)	area under the viability dose-response curve (96F1)	area under the viability dose-response curve (8F1)	area under the viability dose-response curve (17F1)	area under the viability dose-response curve (135F2)	area under the viability dose-response curve (27F1)	area under the viability dose-response curve (17E)
CCCS(=O)(=O)Nc1ccc(F)c(C(=O)c2c[nH]c3ncc(-c4ccc(Cl)cc4)cc23)c1F [Vemurafenib]	447	490	475	395	440	490	495	499	498	499	496
CNC(=O)CN1CCC(Oc2cc3c(Nc4cccc(Cl)c4F)ncnc3cc2OC)CC1 [Sapitinib]	492	431	> 500	235	312	404	439	464	458	338	491
O=C(NOC[C@H](O)CO)c1ccc(F)c(F)c1Nc1ccc(I)cc1F	481	488	490	262	325	461	> 500	480	376	447	471
Cc1[nH]c2ccccc2c1CCNCc1ccc(/C=C/C(=O)NO)cc1 [Panobinostat]	319	210	294	166	220	290	325	271	248	296	218
CC(=O)O[C@H]1C(=O)[C@@]2(C)[C@H]([C@H](OC(=O)c3ccccc3)[C@]3(O)C[C@H](OC(=O)[C@H](O)[C@@H](NC(=O)c4ccccc4)c4ccccc4)C(C)=C1C3(C)C)[C@]1(OC(C)=O)CO[C@@H]1C[C@@H]2O [Paclitaxel]	229	145	196	179	215	179	312	222	211	250	174
Cc1c(-c2c(-c3ccc(F)o3)sc3ncnc(O[C@H](Cc4ccccc4OCc4ccnn4CC(F)(F)F)C(=O)O)c23)ccc(OCCN2CCN(C)CC2)c1Cl	388	234	367	185	239	> 500	485	> 500	351	428	370
Cc1ncc(Cl)cc1NCc1ccc(C(=O)N[C@@H](CC2CCCC2)C(=O)NC2CC2)s1	> 500	456	> 500	491	468	> 500	> 500	> 500	476	488	> 500
Cc1cccc(-c2[nH]c(CNc3ccccc3F)nc2-c2ccc3ncnn3c2)n1 [Vactosertib]	481	419	493	394	> 500	496	491	> 500	481	> 500	> 500
Nc1ccn([C@@H]2O[C@H](CO)[C@@H](O)C2(F)F)c(=O)n1 [Gemcitabine]	331	241	339	212	209	273	433	273	237	310	257
CC1(C)CCC(c2ccc(Cl)cc2)=C(CN2CCN(c3ccc(C(=O)NS(=O)(=O)c4ccc(N[C@H](CCN5CCOCC5)CSc5ccccc5)c(S(=O)(=O)C(F)(F)F)c4)cc3)CC2)C1 [Navitoclax]	423	326	414	335	409	423	321	433	425	421	423
CC1=C(/C=C/C(C)=C/C=C/C(C)=C\C(=O)O)C(C)(C)CCC1 [Isotretinoin]	472	440	468	> 500	> 500	> 500	> 500	> 500	496	> 500	495
Cn1ncnc1[C@H]1c2n[nH]c(=O)c3cc(F)cc(c23)N[C@@H]1c1ccc(F)cc1 [Talazoparib]	444	341	399	367	328	439	438	486	392	403	383
CN(C)C/C=C/C(=O)Nc1ccc(C(=O)N2CCC[C@@H](Nc3ncc(Cl)c(-c4c[nH]c5ccccc45)n3)C2)cc1 [THZ531]	320	263	360	332	376	340	344	332	367	336	374
COc1cc([C@@H]2c3cc4c(cc3[C@@H](O[C@@H]3O[C@@H]5CO[C@@H](C)O[C@H]5[C@H](O)[C@H]3O)[C@H]3COC(=O)[C@H]23)OCO4)cc(OC)c1O [Etoposide]	446	378	380	388	359	383	477	438	389	446	349
Cc1ccc2c(Nc3cccc(Cl)c3F)nccc2c1NC(=O)c1csc2c(N)ncnc12 [Belvarafenib]	474	497	> 500	334	407	> 500	> 500	> 500	389	484	499
Cn1nnc2c(C(N)=O)ncn2c1=O [Temozolomide]	490	499	> 500	468	487	480	> 500	494	> 500	> 500	462
